# Patent publication US20240408096A1, “DOSING REGIMENS FOR ORAL ALK2 KINASE INHIBITORS” (BioCryst Pharmaceuticals, Inc., priority 2020, published 2024)
# Entries after “also recorded” stand apart in the source; their conditions may differ.
# Experiments:
# [1] = Phase 1 Parts 1 and 2 Holter ECG pharmacodynamics / exposure-response; type: in vivo, human
# Description: ECGs were obtained according to the schedule in Tables 4 and 5 for Parts 1 and 2, respectively. A standard bedside 12-lead ECG machine or telemetry system that calculates HR and measures the PR, QRS, QT, RR, and QTc (QTcF) intervals was used. The acceptable deviations from the nominal ECG measurement time points were: re-dose: ≤2 hours before dosing; post dose: ±15 minutes from the nominal post-dose time point; and discharge: ±1 hour from the nominal time point.
# Where possible, Holter-obtained and adjudicated ECGs were used to determine the change from baseline in mean differences in QTcF between each active treatment chosen to be analyzed relative to that obtained on subjects receiving placebo within a study part (for Part 2, within each cohort). At each time point Holter ECGs are analyzed, an individual subject's change from baseline will be calculated as:
# Δik=(QTcF for subject I at time point k−Baseline QTcF), where QTcF measurements will be the average of triplicate ECGs at each time point. Baseline QTcF is the average of all pre-dose values.
# [2] = plasma protein binding, rat; type: in vitro ADME; details: in vitro
# [3] = Phase 1 Part 1 (SAD) plasma PK incl. food effect; type: in vivo, human; details: for AUC0-24, geometric least-squares mean / AUC0-inf, geometric least-squares mean / AUC0-last, geometric least-squares mean / Cmax, geometric least-squares mean: 15 mg single dose; for AUC0-24 / AUC0-inf / AUC0-last / Cmax / Tmax / t1/2: Part 1 SAD; for AUC0-24 / AUC0-inf / AUC0-last / Cmax: geometric mean (CV%); for Tmax / t1/2: median
# Description: Four sequential SAD cohorts were dosed.
# Escalation to the next higher dose level in Part 1 occurred only after satisfactory review of clinical safety and pharmacokinetic data. […] Subjects received the same study drug and dose (Compound A or placebo) in both dosing periods.
# For each cohort of Part 1, the daily dose of study drug was administered as a single dose (1 time daily or QD). In Part 1 of the study, following a screening period to determine eligibility, subjects in each cohort entered the Phase 1 clinical research unit (CRU) on the afternoon of Day −1. Study eligibility was re-confirmed upon admission to the CRU, and subjects remained in the CRU overnight prior to dosing on Day 1. Following Day 1, subjects remained in the CRU for an additional 72 hours post-dose (i.e., discharge on Day 4) to enable collection of plasma and urine for PK samples and other study assessments. Subjects were discharged from the CRU following plasma PK sample collection on Day 4 and returned on Day 16 (+2 days) for a final follow-up visit.
# Serial venous blood samples were withdrawn via an indwelling cannula or by venipuncture according to the schedule in Tables 4 and 5 for Parts 1 and 2, respectively. Samples were collected into 4 mL lithium heparin tubes. The acceptable deviations from the nominal blood sampling times in Part 1 and Part 2 are as follows: the pre-dose blood sample will be taken ≤1 hour before dosing; 0 to 1 hour post-dose samples will be taken within +2 minutes of the nominal post-dose sampling time; >1 to 12 hours post-dose samples will be taken within +10 minutes of the nominal post-dose sampling time; and >12 hours post-dose samples will be taken within +30 minutes of the nominal post-dose sampling time if subjects are resident in the clinic. […]
# In all derivations of PK parameters, 0 will be substituted for concentrations below the quantification limit (BQL) of the assay. Samples that are BQL but are between 2 samples with detectable concentrations will be excluded from PK analysis.
# Dose proportionality was evaluated over all fasted doses within a study part based upon AUC0-inf (Part 1), AUCtau (Part 2), AUC0-t, and Cmax using the power model. The analysis was performed for Day 1 (Parts 1 and 2) and Day 7 (Part 2).
# Dose proportionality for PK parameters was assessed by restricted maximum likelihood using SAS PROC MIXED (SAS STAT software, Cary N.C.). The mean slope was estimated from the power model and the corresponding 90% confidence interval (CI) calculated. Dose proportionality was also examined using an analysis of variance (ANOVA) method, where PK parameters for each dose were compared with a reference dose on a pair-wise basis. The ratio of geometric least squares (GLS) means and the corresponding 90% CI was estimated for each PK parameter of interest.
# Mixed-effects models were constructed with treatment fitted as a fixed effect and subject fitted as a random effect to provide point estimates for the ratios of PK parameters under fed relative to fasted conditions and their associated 90% CI.
# [4] = in vitro genotoxicity: numerical chromosomal aberrations; type: cell-based
# CYP3A = assay: CYP inhibition in vitro; type: in vitro ADME
# [5] = Parts 1 and 2, model included placebo
# [6] = Part 1 cohort 4, 15 mg single dose
compound,measurement,setting,value
COc1cc(-n2cnc(Nc3nc(N4CCC[C@H]4C(N)=O)nc4sccc34)c2)cc(OC)c1OC.O=C(O)CC(O)(CC(=O)O)C(=O)O [Compound A],slope of ΔQTcF-concentration model,[1]; Parts 1 and 2,0.0002
same,ΔQTcF-concentration model fit line and confidence boundaries,[1]; Parts 1 and 2,below 10 msec
same,slope of ΔHR-concentration model,[1]; [5],0.0004
same,slope of ΔPR-concentration model,[1]; [5],−0.0033
same,slope of ΔQRS-concentration model,[1]; [5],0.0004
same,model predicted HR changes,[1]; at all concentrations,< 1 bpm
same,model predicted PR changes,[1]; at all concentrations,less than 2 msec
same,effect on the ECG (12-lead Holter monitoring),[1]; single doses up to 25 mg and multiple daily doses over 7 days up to 20 mg,absence of a clinically significant effect
same,plasma protein binding,[2],≥ 99.9%
same,"AUC0-24, geometric least-squares mean",[3]; fasted,"1975,63 ng · h/mL"
same,"AUC0-inf, geometric least-squares mean",[3]; fasted,2075.34 ng·h/mL
same,"AUC0-last, geometric least-squares mean",[3]; fasted,2019.55 ng·h/mL
same,"Cmax, geometric least-squares mean",[3]; fasted,272.80 ng/mL
same,"AUC0-24, geometric least-squares mean",[3]; fed,1742.05 ng·h/mL
same,"AUC0-inf, geometric least-squares mean",[3]; fed,2087.05 ng·h/mL
same,"AUC0-last, geometric least-squares mean",[3]; fed,2015.24 ng·h/mL
same,"Cmax, geometric least-squares mean",[3]; fed,199.50 ng/mL
same,detectability in plasma,"[3]; Part 1, all cohorts except cohort 1 (5 mg dose)",remained detectable over the entire 72-hour data collection period
same,median time to maximum concentration (Tmax),"[3]; Part 1, all fasted cohorts",approximately 2 hours
same,dose proportionality of plasma exposure,"[3]; Part 1, single oral doses 5 to 25 mg, healthy subjects",exhibits dose proportionality; also recorded: approximately linear and dose proportional
same,AUC0-24,"[3]; 5 mg single oral dose, fasted",686.9 (30.7) ng · h/mL
same,AUC0-inf,"[3]; 5 mg single oral dose, fasted",755.7 (29.9) ng · h/mL
same,AUC0-last,"[3]; 5 mg single oral dose, fasted",717.0 (31.3) ng · h/mL
same,Cmax,"[3]; 5 mg single oral dose, fasted",94.24 (45.2) ng/mL
same,Tmax,"[3]; 5 mg single oral dose, fasted",2.011 h
same,t1/2,"[3]; 5 mg single oral dose, fasted",6.833 h
same,AUC0-24,"[3]; 10 mg single oral dose, fasted",1545 (18.9) ng · h/mL
same,AUC0-inf,"[3]; 10 mg single oral dose, fasted",1662 (17.3) ng · h/mL
same,AUC0-last,"[3]; 10 mg single oral dose, fasted",1579 (18.8) ng · h/mL
same,Cmax,"[3]; 10 mg single oral dose, fasted",234.3 (26.1) ng/mL
same,Tmax,"[3]; 10 mg single oral dose, fasted",2.013 h
same,t1/2,"[3]; 10 mg single oral dose, fasted",5.753 h
same,AUC0-24,"[3]; 15 mg single oral dose, fasted",1976 (16.6) ng · h/mL
same,AUC0-inf,"[3]; 15 mg single oral dose, fasted",2214 (24.3) ng · h/mL
same,AUC0-last,"[3]; 15 mg single oral dose, fasted",2178 (24.8) ng · h/mL
same,Cmax,"[3]; 15 mg single oral dose, fasted",272.8 (42.5) ng/mL
same,Tmax,"[3]; 15 mg single oral dose, fasted",2.009 h
same,t1/2,"[3]; 15 mg single oral dose, fasted",7.639 h
same,AUC0-24,"[3]; 15 mg single oral dose, fed",1742 (17.6) ng · h/mL
same,AUC0-inf,"[3]; 15 mg single oral dose, fed",1978 (21.4) ng · h/mL
same,AUC0-last,"[3]; 15 mg single oral dose, fed",1898 (24.3) ng · h/mL
same,Cmax,"[3]; 15 mg single oral dose, fed",199.5 (41.2) ng/mL
same,Tmax,"[3]; 15 mg single oral dose, fed",4.023 h
same,t1/2,"[3]; 15 mg single oral dose, fed",6.688 h
same,AUC0-24,"[3]; 25 mg single oral dose, fasted",3188 (14.2) ng · h/mL
same,AUC0-inf,"[3]; 25 mg single oral dose, fasted",3517 (17.0) ng · h/mL
same,AUC0-last,"[3]; 25 mg single oral dose, fasted",3475 (17.8) ng · h/mL
same,Cmax,"[3]; 25 mg single oral dose, fasted",474.1 (37.1) ng/mL
same,Tmax,"[3]; 25 mg single oral dose, fasted",2.071 h
same,t1/2,"[3]; 25 mg single oral dose, fasted",7.502 h
same,GLSM AUC0-last and GLSM AUC0-inf fasted vs. fed,[3]; [6],approximately equivalent
same,"Tmax, median of paired differences (95% CI) fed vs. fasted",[3]; [6],"2.00 (0.99, 10.00)"
same,decrease of GLSM AUC0-24 after high-fat meal vs fasted,[3]; [6],12%
same,decrease of GLSM Cmax after high-fat meal vs fasted,[3]; [6],27%
same,dose proportionality of single dose Cmax,[3]; Part 1 single ascending oral dose cohorts (FIG. 2),approximately linear and dose-proportional
same,dose proportionality of single dose AUC0-24,[3]; Part 1 single ascending oral dose cohorts (FIG. 3),approximately linear and dose-proportional
same,induction of numerical chromosomal aberrations,[4],negative
same,CYP3A inhibition,CYP3A,not an inhibitor
